Reference: US10428080B2, “TBK/IKK inhibitor compounds and uses thereof” (Merck Patent GmbH, priority 2015, dated 2019)
Structures can show the parent of a compound that is named as a salt. Where two headings read alike, the source gives them in different places.

Experiments:
[1] = target: T1, TBK1 (Homo sapiens, UniProt Q9UHD2); assay: TBK Biochemical Assay; settings: read-out: TBK1 IC50
T1 sequence (Q9UHD2 1-729): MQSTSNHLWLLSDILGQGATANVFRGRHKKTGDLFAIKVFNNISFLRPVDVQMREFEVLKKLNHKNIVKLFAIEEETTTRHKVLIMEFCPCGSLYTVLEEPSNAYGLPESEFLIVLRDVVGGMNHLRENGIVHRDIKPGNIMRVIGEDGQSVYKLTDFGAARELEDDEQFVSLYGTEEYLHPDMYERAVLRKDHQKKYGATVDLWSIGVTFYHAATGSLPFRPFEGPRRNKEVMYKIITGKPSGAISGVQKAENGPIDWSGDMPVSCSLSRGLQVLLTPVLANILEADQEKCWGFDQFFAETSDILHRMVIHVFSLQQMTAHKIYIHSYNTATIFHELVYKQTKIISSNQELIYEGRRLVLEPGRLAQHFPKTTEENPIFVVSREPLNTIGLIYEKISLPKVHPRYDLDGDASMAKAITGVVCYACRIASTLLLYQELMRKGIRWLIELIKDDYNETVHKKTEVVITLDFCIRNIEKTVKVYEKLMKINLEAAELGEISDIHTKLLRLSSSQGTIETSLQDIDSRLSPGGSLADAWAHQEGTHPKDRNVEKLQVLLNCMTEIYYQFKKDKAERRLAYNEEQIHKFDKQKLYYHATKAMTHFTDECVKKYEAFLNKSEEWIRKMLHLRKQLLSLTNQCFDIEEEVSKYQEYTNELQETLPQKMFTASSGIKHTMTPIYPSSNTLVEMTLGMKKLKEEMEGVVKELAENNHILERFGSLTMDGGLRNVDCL
How it was run: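 TBK1 enzyme and substrate incubated with compounds (10-point 1:4 dilution, top 30 uM final, 1% DMSO) for 90 min at 25° C, then stopped. Substrate/product peaks read by microfluidic mobility-shift (Caliper LabChip); 10 uM staurosporine as full-inhibition control.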

[2] = target: T2, IKKε (Homo sapiens, UniProt Q14164); assay: IKKe Biochemical Assay; settings: read-out: IKKε IC50
T2 sequence (Q14164 1-716): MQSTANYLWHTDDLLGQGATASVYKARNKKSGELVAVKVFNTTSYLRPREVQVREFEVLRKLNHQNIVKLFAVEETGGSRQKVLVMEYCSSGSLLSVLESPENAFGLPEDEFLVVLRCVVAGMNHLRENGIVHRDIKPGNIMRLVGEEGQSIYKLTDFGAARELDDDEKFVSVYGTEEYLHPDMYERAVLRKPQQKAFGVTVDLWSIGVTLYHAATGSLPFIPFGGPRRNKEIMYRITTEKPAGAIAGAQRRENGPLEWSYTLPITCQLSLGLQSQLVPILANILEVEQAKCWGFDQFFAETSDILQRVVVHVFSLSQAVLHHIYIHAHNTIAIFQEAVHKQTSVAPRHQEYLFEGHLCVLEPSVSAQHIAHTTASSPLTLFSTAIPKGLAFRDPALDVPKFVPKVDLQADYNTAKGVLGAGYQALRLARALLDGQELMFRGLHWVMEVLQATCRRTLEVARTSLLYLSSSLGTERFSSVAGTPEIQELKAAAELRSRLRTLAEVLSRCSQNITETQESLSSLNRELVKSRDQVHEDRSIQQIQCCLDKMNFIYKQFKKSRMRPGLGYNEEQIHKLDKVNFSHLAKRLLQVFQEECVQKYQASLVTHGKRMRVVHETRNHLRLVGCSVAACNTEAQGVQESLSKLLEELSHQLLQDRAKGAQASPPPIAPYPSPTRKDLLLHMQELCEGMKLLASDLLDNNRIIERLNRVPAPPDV
How it was run: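 Recombinant IKKε and substrate were incubated with compound (10-point 1:4 series, top 30 uM final, 1% DMSO) for 90 min at 25° C, then stopped. Substrate-to-product conversion was read by LabChip microfluidic mobility shift; 10 uM staurosporine served as full-inhibition wells.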

[3] = system: phosphorylation of the IRF-3 protein in MDA-MB-468 cells; assay: pIRF3 immunocytochemistry cell based assay; settings: Homo sapiens
How it was run: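 MDA-MB-468 cells got compounds (10-point, 3-fold from 10 uM) for 1 h at 37 °C, then 10 ug/ml Poly(I:C) for 2 h. Fixed, permeabilized cells were immunostained for pIRF3 with AlexaFluor488 and counterstained with PI. % phosphorylation was read by laser scanning cytometry, and IC50 curves were fitted.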

[4] = MDA-MB-468 cells, Poly(I:C) stimulation, read-out: pIRF3 IC50
[5] = MDA-MB-468, read-out: pIRF3 IC50

SMILES	IC50 [1]	IC50 [2]	IC50 [3, 4]	IC50 [3, 5]
CN(C)C(=O)c1ccc(-c2cc3nccc(-c4ccc(N5CCC(N(C)C6CC6)C5)c(C#N)c4)c3o2)cc1 (stereo not drawn) [Compound 179, 4-(7-{3-Cyano-4-[3-(cyclopropyl-methyl-amino)-pyrrolidin-1-yl]-phenyl}-furo[3,2-b]pyridin-2-yl)-N,N-dimethyl-benzamide]	100 to 1000 nM	100 to 1000 nM	1000 to 5000 nM	
COc1cc(C(=O)N2CCC(O)C2)ccc1-c1cc2nccc(-c3ccc(NC4CCOCC4)c(C#N)c3)c2o1 (stereo not drawn) [Compound 104, 5-{2-[4-(3-Hydroxy-pyrrolidine-1-carbonyl)-2-methoxy-phenyl]-furo[3,2-b]pyridin-7-yl}-2-(tetrahydro-pyran-4-ylamino)-benzonitrile]	< 100 nM	< 100 nM	100 to 1000 nM	
CN(C)C(=O)c1ccc(-c2cc3nccc(-c4ccc(N5CC[C@@H](F)C5)c(C#N)c4)c3o2)cc1 [Compound 120, 4-{7-[3-Cyano-4-((R)-3-fluoro-pyrrolidin-1-yl)-phenyl]-furo[3,2-b]pyridin-2-yl}-N,N-dimethyl-benzamide]	< 100 nM	< 100 nM	100 to 1000 nM	
COc1cc(C(=O)N(C)C)cnc1-c1cc2nccc(-c3ccc(NC4CCOCC4)c(C#N)n3)c2o1 [Compound 315, 6-(7-[6-cyano-5-[(oxan-4-yl)amino]pyridin-2-yl]furo[3,2-b]pyridin-2-yl)-5-methoxy-N,N-dimethylpyridine-3-carboxamide hydrochloride]	< 100 nM	< 100 nM		100 to 1000 nM
COc1cc(C(=O)N2CC3C2CCN3C)cnc1-c1cc2nccc(-c3ccc(OC4CCOCC4)c(C#N)c3)c2o1 (stereo not drawn) [Compound 405, 5-[2-[3-methoxy-5-([2-methyl-2,6-diazabicyclo[3.2.0]heptan-6-yl]carbonyl)pyridin-2-yl]furo[3,2-b]pyridin-7-yl]-2-(oxan-4-yloxy)benzonitrile hydrochloride]	< 100 nM	< 100 nM	100 to 1000 nM	
COc1cc(C(=O)N(C)C)cnc1-c1cc2nccc(-c3ccc(OC4CCOCC4)c(C#N)n3)c2o1 [Compound 316, 6-[7-[6-cyano-5-(oxan-4-yloxy)pyridin-2-yl]furo[3,2-b]pyridin-2-yl]-5-methoxy-N,N-dimethylpyridine-3-carboxamide]	< 100 nM	< 100 nM	100 to 1000 nM	
COc1cc(C(=O)N(C)C)cnc1-c1cc2ncc(F)c(-c3ccc(NC4CCOCC4)c(C#N)c3)c2o1 [Compound 329, 6-(7-[3-cyano-4-[(oxan-4-yl)amino]phenyl]-6-fluorofuro[3,2-b]pyridin-2-yl)-5-methoxy-N,N-dimethylpyridine-3-carboxamide]	< 100 nM	100 to 1000 nM	100 to 1000 nM	
N#Cc1cc(-c2ccnc3cc(-c4ccc(C(=O)NC5CNCCC5F)cc4)oc23)ccc1OC1CCOCC1 (racemic) [Compound 131, 4-{7-[3-Cyano-4-(tetrahydro-pyran-4-yloxy)-phenyl]-furo[3,2-b]pyridin-2-yl}-N-(4-fluoro-piperidin-3-yl)-benzamide]	< 100 nM	< 100 nM	100 to 1000 nM	
COc1cc(C(=O)NC2C3COCC32)ncc1-c1cc2nccc(-c3ccc(N4CC[C@H](F)C4)c(C#N)c3)c2o1 (stereo partly drawn) [Compound 451, 5-(7-[3-cyano-4-[(3S)-3-fluoropyrrolidin-1-yl]phenyl]furo[3,2-b]pyridin-2-yl)-4-methoxy-N-[3-oxabicyclo[3.1.0]hexan-6-yl]pyridine-2-carboxamide]	< 100 nM	< 100 nM	100 to 1000 nM	
COc1cc(C(=O)N2CC3CCC2CO3)cnc1-c1cc2nccc(-c3ccc(OC4CCOCC4)c(C#N)c3)c2o1 (stereo not drawn) [Compound 414, hydrochloride]	< 100 nM	< 100 nM	< 100 nM	
COc1cc(C(=O)N2CC3CCC(C2)O3)ccc1-c1cc2nccc(-c3ccc(NC4CCOCC4)c(C#N)c3)c2o1 [Compound 46, 5-{2-[2-Methoxy-4-(8-oxa-3-aza-bicyclo[3.2.1]octane-3-carbonyl)-phenyl]-furo[3,2-b]pyridin-7-yl}-2-(tetrahydro-pyran-4-ylamino)-benzonitrile]	< 100 nM	< 100 nM	100 to 1000 nM	
COc1cc(C(=O)N[C@@]23C[C@@H]2CN(C(C)C)C3)ccc1-c1cc2nccc(-c3ccc(OC4CCOCC4)c(C#N)c3)c2o1 [Compound 372, 4-[7-[3-cyano-4-(oxan-4-yloxy)phenyl]furo[3,2-b]pyridin-2-yl]-3-methoxy-N-[(1S,5R)-3-(propan-2-yl)-3-azabicyclo[3.1.0]hexan-1-yl]benzamide]	< 100 nM	< 100 nM		100 to 1000 nM
COc1cc(C(=O)N(C)C)ccc1-c1cc2nccc(-c3ccc(OC4CCN(C)C4)c(C#N)c3)c2o1 (stereo not drawn) [Compound 149, 4-{7-[3-Cyano-4-(1-methyl-pyrrolidin-3-yloxy)-phenyl]-furo[3,2-b]pyridin-2-yl}-3-methoxy-N,N-dimethyl-benzamide]	< 100 nM	< 100 nM	100 to 1000 nM	
COc1cc(C(=O)N(C)C)ccc1-c1cc2nccc(-c3ccc(OC4CN(C(C)C)C4)c(C#N)c3)c2o1 [Compound 485, 4-{7-[3-Cyano-4-(1-isopropyl-azetidin-3-yloxy)-phenyl]-furo[3,2-b]pyridin-2-yl}-3-methoxy-N,N-dimethyl-benzamide]	1000 to 5000 nM	1000 to 5000 nM	1000 to 5000 nM	
COc1cc(C(=O)NCC2(F)COC2)ccc1-c1cc2nccc(-c3ccc(OC4CCOCC4)c(C#N)c3)c2o1 [Compound 69, 4-{7-[3-Cyano-4-(tetrahydro-pyran-4-yloxy)-phenyl]-furo[3,2-b]pyridin-2-yl}-N-(3-fluoro-oxetan-3-ylmethyl)-3-methoxy-benzamide]	< 100 nM	< 100 nM	100 to 1000 nM	
COc1cc(C(=O)N2CC(F)(F)C2)ccc1-c1cc2nccc(-c3ccc(OC4CCOCC4)c(C#N)c3)c2o1 [Compound 77, 5-{2-[4-(3,3-Difluoro-azetidine-1-carbonyl)-2-methoxy-phenyl]-furo[3,2-b]pyridin-7-yl}-2-(tetrahydro-pyran-4-yloxy)-benzonitrile]	< 100 nM	< 100 nM	100 to 1000 nM	
COc1cc(C(=O)N(C)CCO)cnc1-c1cc2ncc(F)c(-c3ccc(OC4CCOCC4)c(C#N)c3)c2o1 [Compound 334, 6-[7-[3-cyano-4-(oxan-4-yloxy)phenyl]-6-fluorofuro[3,2-b]pyridin-2-yl]-N-(2-hydroxyethyl)-5-methoxy-N-methylpyridine-3-carboxamide]	< 100 nM	< 100 nM	100 to 1000 nM	
COc1cc(C(=O)N(C)CCO)cnc1-c1cc2nccc(-c3ccc(OC4CCOCC4)c(C#N)n3)c2o1 [Compound 327, 6-[7-[6-cyano-5-(oxan-4-yloxy)pyridin-2-yl]furo[3,2-b]pyridin-2-yl]-N-(2-hydroxyethyl)-5-methoxy-N-methylpyridine-3-carboxamide hydrochloride]	< 100 nM	< 100 nM		< 100 nM
